Like-named read-outs stand apart in the source and are kept apart here.

Among the data in patent US20230159527A1, “COMPOUNDS AS BCL-2 INHIBITORS” (Fochon Pharmaceuticals, Ltd., priority 2020, published 2023) are IC50 values, retold here.

Assay type in all cases: cell-based
In test [1] the test system is Toledo cells. Put plainly: Cell proliferation assay, Toledo cells (MTS, 72 h). Conditions: Toledo cells, MTS, read-out: Toledo IC50. The method, boiled down:
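Toledo cells (30000/well, RPMI-1640 with 10% FBS) were preincubated for 4 h. They were then exposed to nine compound concentrations from 10000 to 1.5 nM for 72 h at 37 °C, 5% CO2. MTS was added for 2 h and absorbance read at 490 nm to give IC50.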

The test system of test [2] is RS4;11-BCL-2 G101V cells. Put plainly: Cell proliferation assay, engineered RS4;11 cells stably overexpressing BCL-2 G101V (MTS, 168 h). Conditions: read-out: RS4, 11 BCL2- G101V. The method in brief: (§1)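 Proliferation read-out: MTS for exactly 2 h, then absorbance at 490 nm, with IC50 derived from the fit. Before this, engineered RS4;11 lines (BCL-2 G101V, F104L; 5000 cells/well) were exposed 168 h at 37 °C to serially diluted compound, final 1.4–10000 nM.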

The test system of test [3] is RS4;11-BCL-2 F104L cells. Briefly: Cell proliferation assay, engineered RS4;11 cells stably overexpressing BCL-2 F104L (MTS, 168 h). The settings on record: Homo sapiens, read-out: RS4, 11 BCL2-F104L. The method in brief: as §1

Consider `CC(C)c1ccccc1[C@@H]1CCC[C@@H]1N1CC2(CCN(c3ccc(C(=O)NS(=O)(=O)c4cnc(NC[C@H]5CC[C@](C)(O)CC5)c([N+](=O)[O-])c4)c(Oc4cc5c(F)c[nH]c5nc4F)c3)CC2)C1` (single isomer, unassigned) [Example A-150, 2-((3,6-difluoro-1H-pyrrolo[2,3-b]pyridin-5-yl)oxy)-N-((6-((((1r,4r)-4-hydroxy-4-methylcyclohexyl)methyl)amino)-5-nitropyridin-3-yl)sulfonyl)-4-(2-((1S,2S or 1R,2R)-2-(2-isopropylphenyl)cyclo-petyl)-2,7-diazaspiro[3.5]nonan-7-yl) benzamide], for which the IC50 worked out at 1 nM in test [1] (Homo sapiens); 6 nM in test [2] (Homo sapiens, RS4-11, 168 h); 1 nM in test [3].
Take `CC(C)c1ccccc1[C@@H]1CCCN1C1CC2(CCN(c3ccc(C(=O)NS(=O)(=O)c4cc5c(c([N+](=O)[O-])c4)N[C@@H]([C@H]4CC[C@](C)(O)CC4)CO5)c(Oc4cc5c(F)c[nH]c5nc4OC4CCN(C)CC4)c3)CC2)C1` (single isomer, unassigned) [Example D-286, 2-((3-fluoro-6-((1-methylpiperidin-4-yl)oxy)-1H-pyrrolo[2,3-b]pyridin-5-yl)oxy)-N-(((S)-3-((1r,4S)-4-hydroxy-4-methylcyclohexyl)-5-nitro-3,4-dihydro-2H-benzo[b] [1,4]oxazin-7-yl)sulfonyl)-4-(2-((R or S)-2-(2-isopropylphenyl)pyrrolidin-1-yl)-7-azaspiro[3.5]nonan-7-yl)benzamide]: the IC50 in test [1] (Homo sapiens) turned out to be 1 nM; in test [2] (Homo sapiens, RS4-11, 168 h), 1 nM; in test [3], 1 nM.
On to `CC(C)c1ccccc1[C@@H]1CCCN1C1CC2(CCN(c3ccc(C(=O)NS(=O)(=O)c4cc5c(c([N+](=O)[O-])c4)N[C@@H]([C@H]4CC[C@](C)(O)CC4)CO5)c(Oc4cc5cc[nH]c5nc4OC[C@H]4COCCN4C)c3)CC2)C1` (single isomer, unassigned) [Example D-134, N-(((S)-3-((1r,4S)-4-hydroxy-4-methylcyclohexyl)-5-nitro-3,4-dihydro-2H-benzo[b][1,4]oxazin-7-yl)sulfonyl)-4-(2-((R or S)-2-(2-isopropylphenyl)pyrrolidin-1-yl)-7-azaspiro[3.5]nonan-7-yl)-2-((6-(((7)-4-methylmorpholin-3-yl)methoxy)-1H-pyrrolo[2,3-b]pyridin-5-yl)oxy)benzamide], for which the IC50 in test [1] (Homo sapiens) came out at 1 nM; in test [2] (Homo sapiens, RS4-11, 168 h), 1 nM; in test [3], 1 nM.
For `CC(C)c1ccccc1[C@@H]1CCCN1C1CC2(CCN(c3ccc(C(=O)NS(=O)(=O)c4cc5c(c([N+](=O)[O-])c4)N[C@@H]([C@H]4CC[C@](C)(O)CC4)CO5)c(Oc4cc5cc[nH]c5nc4Cl)c3)CC2)C1` (single isomer, unassigned) [Example D-18, 2-((6-chloro-1H-pyrrolo[2,3-b]pyridin-5-yl)oxy)-N-(((S)-3-((1r,4S)-4-hydroxy-4-methylcyclohexyl)-5-nitro-3,4-dihydro-2H-benzo[b] [1,4]oxazin-7-yl)sulfonyl)-4-(2-((R or S)-2-(2-isopropylphenyl)pyrrolidin-1-yl)-7-azaspiro[3.5]nonan-7-yl)benzamide], the IC50 in test [1] (Homo sapiens) stood at 1 nM; in test [2] (Homo sapiens, RS4-11, 168 h), 14 nM; in test [3], 33 nM.
Taken in the same sequence, the figures for `CC(C)c1ccccc1[C@@H]1CCCN1C1CC2(CCN(c3ccc(C(=O)NS(=O)(=O)c4cc5c(c([N+](=O)[O-])c4)N[C@@H]([C@H]4CC[C@](C)(O)CC4)CO5)c(Oc4cc5cc[nH]c5nc4OCCN4CCC4)c3)CC2)C1` (single isomer, unassigned) [Example D-61, 2-((6-(2-(azetidin-l-yl)ethoxy)-1H-pyrrolo[2,3-b]pyridin-5-yl)oxy)-N-(((S)-3-((1r,4S)-4-hydroxy-4-methylcyclohexyl)-5-nitro-3,4-dihydro-2H-benzo[b][1,4]oxazin-7-yl)sulfonyl)-4-(2-((R or S)-2-(2-isopropylphenyl)pyrrolidin-1-yl)-7-azaspiro[3.5]nonan-7-yl)benzamide] were 1 nM, 1 nM and 11 nM.
The matching figures for `CCOc1nc2[nH]ccc2cc1Oc1cc(N2CCC3(CC2)CC(N2CCC[C@H]2c2ccccc2C(C)C)C3)ccc1C(=O)NS(=O)(=O)c1cc2c(c([N+](=O)[O-])c1)N[C@@H]([C@H]1CC[C@](C)(O)CC1)CO2` (single isomer, unassigned) [Example D-65, 2-((6-ethoxy-1H-pyrrolo[2,3-b]pyridin-5-yl)oxy)-N-(((5)-3-((1r,4S)-4-hydroxy-4-methylcyclohexyl)-5-nitro-3,4-dihydro-2H-benzo[b] [1,4]oxazin-7-yl)sulfonyl)-4-(2-((R or S)-2-(2-isopropylphenyl)pyrrolidin-1-yl)-7-azaspiro[3.5]nonan-7-yl)benzamide]: 1 nM, 1 nM and 20 nM.
As for `CC(C)c1ccccc1[C@@H]1CCCN1C1CC2(CCN(c3ccc(C(=O)NS(=O)(=O)c4cc5c(c([N+](=O)[O-])c4)N[C@@H]([C@H]4CC[C@](C)(O)CC4)CO5)c(Oc4cc5cc[nH]c5nc4O[C@@H]4CCN(C)C4)c3)CC2)C1` (single isomer, unassigned) [Example D-223, N-(((S)-3-((1r,4S)-4-hydroxy-4-methylcyclohexyl)-5-nitro-3,4-dihydro-2H-benzo[b][1,4]oxazin-7-yl)sulfonyl)-4-(2-((R or S)-2-(2-isopropylphenyl)pyrrolidin-1-yl)-7-azaspiro[3.5]nonan-7-yl)-2-((6-(((R)-1-methylpyrrolidin-3-yl)oxy)-1H-pyrrolo[2,3-b]pyridin-5-yl)oxy)benzamide], the IC50 was 1 nM in test [1] (Homo sapiens); 1 nM in test [2] (Homo sapiens, RS4-11, 168 h); 1 nM in test [3].
As for `COCCOc1nc2[nH]cc(F)c2cc1Oc1cc(N2CCC3(CC2)CC(N2CCC[C@H]2c2ccccc2C(C)C)C3)ccc1C(=O)NS(=O)(=O)c1cc2c(c([N+](=O)[O-])c1)N[C@@H]([C@H]1CC[C@](C)(O)CC1)CO2` (single isomer, unassigned) [Example D-71, 2-((3-fluoro-6-(2-methoxyethoxy)-1H-pyrrolo[2,3-b]pyridin-5-yl)oxy)-N-(((S)-3-((1r,4S)-4-hydroxy-4-methylcyclohexyl)-5-nitro-3,4-dihydro-2H-benzo[b][1,4]oxazin-7-yl)sulfonyl)-4-(2-((R or S)-2-(2-isopropylphenyl)pyrrolidin-1-yl)-7-azaspiro[3.5]nonan-7-yl)benzamide], the IC50 in test [1] (Homo sapiens) was found to be 1 nM; in test [2] (Homo sapiens, RS4-11, 168 h), 13 nM; in test [3], 12 nM.
Turning to `CC(C)c1ccccc1[C@@H]1CCC[C@@H]1N1CC2(CCN(c3ccc(C(=O)NS(=O)(=O)c4cnc(NC[C@H]5CC[C@](C)(O)CC5)c([N+](=O)[O-])c4)c(Oc4cc5c(F)c[nH]c5nc4Cl)c3)CC2)C1` (single isomer, unassigned) [Example A-151, 2-((6-chloro-3-fluoro-1H-pyrrolo[2,3-b]pyridin-5-yl)oxy)-N-((6-((((1r,4r)-4-hydroxy-4-methylcyclohexyl)methyl)amino)-5-nitropyridin-3-yl)sulfonyl)-4-(2-((1S,2S or 1R,2R)-2-(2-isopropylphenyl)cyclo-pentyl)-2,7-diazaspiro[3.5]nonan-7-yl)_ benzamide], the IC50 in test [1] (Homo sapiens) was determined as 1 nM; in test [2] (Homo sapiens, RS4-11, 168 h), 3 nM; in test [3], 1 nM.
Turning to `CC(C)c1ccccc1[C@@H]1CCCN1C1CC2(CCN(c3ccc(C(=O)NS(=O)(=O)c4cc5c(c([N+](=O)[O-])c4)N[C@@H]([C@H]4CC[C@](C)(O)CC4)CO5)c(Oc4cc5cc[nH]c5nc4OC[C@@H]4COCCN4C)c3)CC2)C1` (single isomer, unassigned) [Example D-135, N-(((S)-3-((1r,4S)-4-hydroxy-4-methylcyclohexyl)-5-nitro-3,4-dihydro-2H-benzo[b][1,4]oxazin-7-yl)sulfonyl)-4-(2-((R or S)-2-(2-isopropylphenyl)pyrrolidin-1-yl)-7-azaspiro[3.5]nonan-7-yl)-2-((6-(((S)-4-methylmorpholin-3-yl)methoxy)-1H-pyrrolo[2,3-b]pyridin-5-yl)oxy)benzamide], the IC50 in test [1] (Homo sapiens) stood at 1 nM; in test [2] (Homo sapiens, RS4-11, 168 h) it was 1 nM; in test [3], 1 nM.
With `CC(C)c1ccccc1[C@@H]1CCC[C@@H]1N1CC2(CCN(c3ccc(C(=O)NS(=O)(=O)c4ccc(NC[C@H]5CC[C@](C)(O)CC5)c([N+](=O)[O-])c4)c(Oc4cnc5[nH]cc(F)c5c4)c3)CC2)C1` (single isomer, unassigned) [Example D-34b, 2-((3-fluoro-1H-pyrrolo[2,3-b]pyridin-5-yl)oxy)-N-((4-((((1r,4r)-4-hydroxy-4-methylcyclohexyl)methyl)amino)-3-nitrophenyl)sulfonyl)-4-(2-((1S,2S or 1R,2R)-2-(2-isopropylphenyl)cyclopentyl)-2,7-diazaspiro[3.5]nonan-7-yl)benzamide], the values for the IC50 in test [1], in test [2] and in test [3] were 1 nM, 7 nM and 1 nM, respectively.
Take `COc1nc2[nH]cc(F)c2cc1Oc1cc(N2CCC3(CC2)CN([C@H]2CCC[C@H]2c2ccccc2C(C)C)C3)ccc1C(=O)NS(=O)(=O)c1cnc(NC[C@H]2CC[C@](C)(O)CC2)c([N+](=O)[O-])c1` (single isomer, unassigned) [Example A-152, 2-((3-fluoro-6-methoxy-1H-pyrrolo [2,3-b]pyridin-5-yl)oxy)-N-((6-(((1r, 4r)-4-hydroxy-4-methylcyclohexyl)methyl)amino)-5-nitropyridin-3-yl) sulfonyl)-4-(2-((1S,2S or 1R,2R)-2-(2-isopropylphenyl)cyclo-pentyl)-2,7-diazaspiro[3.5]nonan-7-yl) benzamide]: the IC50 in test [1] (Homo sapiens) worked out at 1 nM; in test [2] (Homo sapiens, RS4-11, 168 h), 40 nM; in test [3] it was 9 nM.
